Experimental findings from US11008334B2, “Compositions and methods for treating cancer” (The Regents of the University of California, priority 2012, dated 2021) are described below.

The target in the test is T1, K-RasG12C (1-169) (Homo sapiens, UniProt P01116, G12C).
T1 construct: Un-tagged recombinant K-Ras G12C (1-169) at 4 μM in Buffer A; hexahistidine (cleaved yes); made in house; host or cells: Escherichia coli BL21 (DE)
Briefly: Mass spectrometric screen for extent of covalent labeling. The test is classed as binding. The following applies: for percent covalent labeling at 10 µM: 10 micromolar; for Labeling % (10 micM) 24h: 10 micM compound, (plate) or (single) measurement. As for the experimental part:
Un-tagged recombinant K-Ras G12C (1-169) at 4 μM in Buffer A was reacted with inhibitors at 200 μM or 10 μM (2% DMSO final). At 2, 6, and 24 hrs, 10 μL aliquots were removed and the reactions were stopped by addition of 1 μL 2% formic acid. The extent of modification was determined by mass spectrometry.

The mark [1] stands for this setting: 24 h, 24 hrs, read-out: Percent reduction in activity of compound at 10 micromolar relative to control (no compound), 24 hrs.
Setting [2] is: 2 h, 2 hrs, read-out: Percent reduction in activity of compound at 10 micromolar relative to control (no compound), 2 hrs.
Where [3] appears, read: 6 h, 6 hrs, read-out: Percent reduction in activity of compound at 10 micromolar relative to control (no compound), 6 hrs.

Like-named read-outs stand apart in the source and are kept apart here. Bounds are passed on as bounds.

Regarding `C=CS(=O)(=O)NC1CCN(C(=O)COc2cc(C(C)(C)O)c(Cl)cc2Cl)CC1` [Ras-074], the percent covalent labeling at 10 µM under setting [1] lay in the range of 40 to 60%.

With `C=CC(=O)N1CCN(C(=O)CNc2cc(I)c(Cl)cc2OC)CC1` [Ras-080], under setting [1], the percent covalent labeling at 10 µM was 20 to 40%.

For `C=CS(=O)(=O)NC1CCN(C(=O)COc2cc(C(F)(F)F)c(Cl)cc2Cl)CC1` [Ras-011], the percent covalent labeling at 10 µM under setting [2] is not above 5%, the percent covalent labeling at 10 µM under setting [3] is not above 5% and the percent covalent labeling at 10 µM under setting [1] fell in the range of 20 to 40%.

Consider `C=CS(=O)(=O)NC1CCN(C(=O)COc2cc(C(C)=O)c(Cl)cc2Cl)CC1` [Ras-043], for which the percent covalent labeling at 10 µM was not above 5% under setting [2], not above 5% under setting [3] and not above 5% under setting [1].

`C=CS(=O)(=O)NC1CCN(C(=O)CSc2cn(CC)c3ccccc23)CC1` [UP-I-154B]: the percent covalent labeling at 10 µM was not above 5% under setting [2], not above 5% under setting [3] and not above 5% under setting [1].

As to `C=CC(=O)NCCNC(=O)COc1ccc(Cl)cc1Cl` [JO-02-37A], the percent covalent labeling at 10 µM under setting [2] was not above 5%, the percent covalent labeling at 10 µM under setting [3] was not above 5% and the percent covalent labeling at 10 µM under setting [1] was not above 5%.

Take `C=CS(=O)(=O)NCC(=O)NC1CCN(C(=O)COc2ccc(Cl)cc2Cl)CC1` [JO-02-56A]: the “Labeling % (10 micM) 24h” value is on record as “++++ (plate) (40% < ++++ <=60%)”. Also, under setting [2], the percent covalent labeling at 10 µM was not above 5%. Also, the percent covalent labeling at 10 µM under setting [3] was not above 5%. Further, the percent covalent labeling at 10 µM under setting [1] was in the range of 40 to 60%. For the same molecule, where the note is “Table 5”, the “Labeling % (10 micM) 24h” value is reported as “++++ (plate) (40% < ++++ <=60%)”.

On to `C=CS(=O)(=O)NC1CCN(C(=O)COc2cc(C(=O)NCCO)c(Cl)cc2Cl)CC1` [Ras-049], for which the percent covalent labeling at 10 µM reads like this: under setting [2], not above 5%; under setting [3], not above 5%; under setting [1], not above 5%.

In the case of `N#CC1(NC(=O)C2CCN(C(=O)COc3ccc(Cl)cc3Cl)CC2)CC1` [Ras-001], the percent covalent labeling at 10 µM was not above 5% under setting [2], not above 5% under setting [3] and not above 5% under setting [1].

On to `C=CS(=O)(=O)NC1CCN(C(=O)COc2cc(S(N)(=O)=O)c(Cl)cc2Cl)CC1` [Ras-047], for which the percent covalent labeling at 10 µM is, setting by setting: under setting [2], not above 5%; under setting [3], not above 5%; under setting [1], not above 5%.

On to `C=CC(=O)N1CC[C@H](NC(=O)CNc2cc(Cl)c(Cl)cc2I)C1` [JO-02-157B (S)], for which the percent covalent labeling at 10 µM under setting [2] was not above 5%, the percent covalent labeling at 10 µM under setting [3] was not above 5% and the percent covalent labeling at 10 µM under setting [1] lay within 5 to 20%.

`C=CS(=O)(=O)NC1CCN(C(=O)COc2ccc(Cl)cc2CO)CC1` [Ras-051]: the percent covalent labeling at 10 µM was not above 5% under setting [2], not above 5% under setting [3] and 5 to 20% under setting [1].

On to `C=CS(=O)(=O)NC1CCN(C(=O)COc2cc(Cl)c(Cl)cc2I)CC1` [Ras-053], for which the percent covalent labeling at 10 µM under setting [2] is not above 5%, the percent covalent labeling at 10 µM under setting [3] was in the range of 5 to 20% and the percent covalent labeling at 10 µM under setting [1] lay in the range of 40 to 60%.

Turning to `C=CS(=O)(=O)NC1CCN(C(=O)COc2ccc(Cl)cc2C(=O)OC)CC1` [Ras-020], the percent covalent labeling at 10 µM runs as follows: under setting [2], not above 5%; under setting [3], not above 5%; under setting [1], not above 5%.

Consider `C=CS(=O)(=O)NC1CCN(C(=O)COc2ccc(Cl)cc2C=O)CC1` [Ras-042], for which the percent covalent labeling at 10 µM is, setting by setting: under setting [2], not above 5%; under setting [3], not above 5%; under setting [1], 5 to 20%.

With `C=CS(=O)(=O)NC1CCN(C(=O)COc2cc(NC(C)=O)c(Cl)cc2Cl)CC1` [Ras-022], the percent covalent labeling at 10 µM is not above 5% under setting [2], not above 5% under setting [3] and not above 5% under setting [1].

`C=CS(=O)(=O)NC1CCN(C(=O)COc2cc(C(C)O)c(Cl)cc2Cl)CC1` (centres unmarked) [Ras-044]: the percent covalent labeling at 10 µM under setting [2] is not above 5%, the percent covalent labeling at 10 µM under setting [3] is not above 5% and the percent covalent labeling at 10 µM under setting [1] lay in the range of 5 to 20%.

Regarding `C#Cc1cc(OCC(=O)N2CCC(NS(=O)(=O)C=C)CC2)c(Cl)cc1Cl` [Ras-071], the percent covalent labeling at 10 µM runs as follows: under setting [2], not above 5%; under setting [3], not above 5%; under setting [1], 40 to 60%.

With `C=CS(=O)(=O)Nc1cc(-c2cccs2)n[nH]1` [JO-02-38B], the percent covalent labeling at 10 µM was not above 5% under setting [2], not above 5% under setting [3] and not above 5% under setting [1].

Consider `C=CS(=O)(=O)NC1CCN(C(=O)COc2ccc(Cl)cc2C)CC1` [Ras-018], for which the percent covalent labeling at 10 µM under setting [2] was not above 5%, the percent covalent labeling at 10 µM under setting [3] was not above 5% and the percent covalent labeling at 10 µM under setting [1] was in the range of 20 to 40%.

Turning to `O=C(COc1ccc(Cl)cc1Cl)N1CCC(NCC2CO2)CC1` (centres unmarked) [JO-02-77A], the percent covalent labeling at 10 µM under setting [2] is not above 5%, the percent covalent labeling at 10 µM under setting [3] was not above 5% and the percent covalent labeling at 10 µM under setting [1] is not above 5%.

As to `C=CS(=O)(=O)NC1CCN(C(=O)COc2ccc3nncn3n2)CC1` [UP-I-165C], the percent covalent labeling at 10 µM under setting [2] is not above 5%, the percent covalent labeling at 10 µM under setting [3] was not above 5% and the percent covalent labeling at 10 µM under setting [1] is not above 5%.

For `C=CS(=O)(=O)NC1CCN(C(=O)CN(C)c2cc(Cl)c(Cl)cc2I)CC1` [Ras-052], the percent covalent labeling at 10 µM runs as follows: under setting [2], not above 5%; under setting [3], not above 5%; under setting [1], 5 to 20%.

Regarding `C=CS(=O)(=O)NC1CCN(C(=O)CNc2cc(I)c(Cl)cc2OC)CC1` [Ras-079], the percent covalent labeling at 10 µM was 20 to 40% under setting [2], more than 60% under setting [3] and more than 60% under setting [1]. Also, the “Labeling % (10 micM) 24h” value (Table 5) was “+++++ (single) (60% < +++++)”.

On to `C=CC(=O)NC1CCN(C(=O)CCn2ncc3ccccc32)CC1` [Ras-006], for which the percent covalent labeling at 10 µM was not above 5% under setting [2], not above 5% under setting [3] and not above 5% under setting [1].

Take `C=CS(=O)(=O)NC1CCN(C(=O)CSc2c(Cl)cccc2Cl)CC1` [JO-02-31D]: the percent covalent labeling at 10 µM reads like this: under setting [2], not above 5%; under setting [3], not above 5%; under setting [1], not above 5%.

Take `C=CS(=O)(=O)NC1CCN(C(=O)COc2ccc(Cl)cc2)CC1` [JO-02-115A]: the percent covalent labeling at 10 µM reads like this: under setting [2], not above 5%; under setting [3], not above 5%; under setting [1], not above 5%.

`C=CS(=O)(=O)NCC1CCN(C(=O)COc2ccc(Cl)cc2Cl)CC1` [JO-02-112C]: the percent covalent labeling at 10 µM runs as follows: under setting [2], not above 5%; under setting [3], not above 5%; under setting [1], not above 5%.

`C=CS(=O)(=O)NC1CCN(C(=O)c2cc3cc(F)ccc3[nH]2)CC1` [JO-02-49B]: the percent covalent labeling at 10 µM was not above 5% under setting [2], not above 5% under setting [3] and not above 5% under setting [1].

In the case of `C=CS(=O)(=O)NC1CCN(C(=O)COc2cc(OCCO)c(Cl)cc2Cl)CC1` [Ras-048], the percent covalent labeling at 10 µM by setting is: under setting [2], not above 5%; under setting [3], not above 5%; under setting [1], 5 to 20%.

`C=CS(=O)(=O)NC1CCN(C(=O)COc2c(N)cc(Cl)cc2Cl)CC1` [UP-I-185b]: the percent covalent labeling at 10 µM by setting is: under setting [2], not above 5%; under setting [3], not above 5%; under setting [1], 5 to 20%.
